Patent US9102636B2, “Analgesic compounds, compositions, and uses thereof” (Galleon Pharmaceuticals, Inc., priority 2010, dated 2015)
“And” between values parts separate entries of the source, which are not always exact repeats. Equal entries are not always repeated. “Also recorded” adds a separate entry of the source.

Legend:
PC12 cells = assay: Inhibition of peroxynitrite (SIN-1) mediated cytotoxicity, ATPlite; format: cell-based; conditions: Rattus norvegicus, PC-12, SIN-1 overnight, average of two plates
Description: ATPlite is an Adenosine TriPhosphate monitoring system based on firefly luciferase. ATP monitoring was used as a measure of PC12 cell viability, as it is present in all metabolically active cells and its concentration very rapidly declines as cells undergo necrosis and apoptosis. ATPlite is based upon the production of light given off during the reaction of ATP & D-Luciferin in the presence of Luciferase. The emitted light is proportional to the ATP concentration. Compounds of the invention were assessed for their ability to inhibit SIN-1 induced cell toxicity. Inhibitory concentrations, IC50 values, were calculated by testing compounds of the invention at various concentrations and averaging the IC50 of two plates.
All cell work was carried out under the cell culture hood in a sterile environment. […] The cells were counted in the 4 large corner quadrants of the hemacytometer under the inverted microscope at 10× and the average of the 4 quadrants was calculated. Blue cells were not counted as these cells represented non-viable cells. The number of cells present in 1 mL of media was determined using the following equation: cells/mL=(# cells counted/# squares counted)×10^4×dilution factor. […]
On Day 3, 10.25 ml of ATPlite buffer was added to 1 vial of lyophilized substrate solution (ATPlite 1 step luminescence ATP detection Assay system (Perkin Elmer, #6016731)). […]

[1] = test system: spinal nerve ligation induced tactile allodynia; assay: Spinal nerve ligation (SNL, Chung model) induced tactile allodynia (von Frey filaments); format: in vivo, rat; conditions: for Paw threshold / Paw withdrawal threshold: individual animals; for Paw withdrawal threshold: non-fasted
[2] = test system: capsaicin-mediated hyperalgesia; assay: Capsaicin-induced hyperalgesia; format: in vivo; conditions: rat; IV prior to intra-plantar capsaicin; FIG. 8
[3] = test system: hyperalgesia following incisional surgery; assay: Established incisional hyperalgesia, dosing 24 hours after surgery; format: in vivo; conditions: rat; given 24 hours after surgical incision; FIG. 10
[4] = test system: fentanyl analgesia (Hargreaves); assay: Preservation of fentanyl analgesia in Hargreaves thermal plantar model; format: in vivo; conditions: rat; compound IV 15 min before fentanyl 25 μg/kg; FIG. 2
ataxia (rotarod) = assay: Accelerating rotarod assay of ataxia (latency to fall); format: in vivo, rat; conditions: for Latency to fall: maximum 300 seconds, individual animals
Method: Compound 2 was evaluated in a rat accelerating rotarod model of ataxia. Ataxia is a common clinical problem with CNS-active compounds and can often confound interpretation of efficacy in preclinical pain models. The rotarod assay of ataxia has been widely used to assess the side-effect liability of novel pharmacological treatments (Jones & Roberts, 1968, J. Pharm. […] The positive control was haloperidol (Sigma, St. […] Male Sprague-Dawley Rats (Harlan, Ill.) were 250-300 g at time of dosing. Rotarod was obtained from IITC, CA. To examine the potential effects of Compound 2 on motor performance, rats were tested on an accelerating rotarod (IITC, Ca). […] Rats received two timed training trials (averaged to give the reported baseline) on the first day, then 24 hr later rats were administered Compound 2 (30, 100 and 300 mg/kg, p.o.), haloperidol (3 mg/kg, p.o.), the positive control, or vehicle. […] Statistical significance was determined on untransformed data using a two-way analysis of variance (Graphpad Prism, NC). Significant main effects were analyzed further by subsequent Bonferronni post-hoc test. The level of significance was set at p<0.05. Data are shown as mean±S.E.M. (with an asterisk to denote significance as compared to vehicle treated controls).

[5] = test system: hyperalgesia following incisional surgery; assay: Incisional hyperalgesia, dosing at conclusion of surgery; format: in vivo; conditions: rat; IV at conclusion of surgical incision; FIG. 9

Q: Which results are given for `CC1(C)SC(Nc2ccccc2O)=N[C@@H]1C(=O)O` [Compound 2, (R)-2-(2-hydroxyphenylamino)-thiazoline-5,5-dimethyl-4-carboxylic acid]?
A: IC50 (PC12 cells): 3.7 µM; Paw threshold ([1]; FIG. 25, compound 2 30 mg/kg p.o. once on the day of surgery, 1 wk, 30 mg/kg): 1.85 g and 1.18 g and 2.81 g and 4.47 g and 6.4 g and 2.2 g and 15 g and 4.25 g; Paw threshold ([1]; FIG. 25, compound 2 30 mg/kg p.o. once on the day of surgery, 2 wks, 30 mg/kg): 1.65 g and 2.81 g and 2 g (2×) and 3.73 g and 0.99 g and 5.56 g and 5.04 g; Paw threshold ([1]; FIG. 25, compound 2 30 mg/kg p.o. once on the day of surgery, Pre-Sx): 15 g; Paw threshold ([1]; FIG. 26, compound 2 30 mg/kg p.o. QD on days 1-5 post-surgery, 1 wk, 30 mg/kg): 15 g (4×) and 11.41 g and 3.13 g and 1.18 g and 6.66 g; Paw threshold ([1]; FIG. 26, compound 2 30 mg/kg p.o. QD on days 1-5 post-surgery, 2 wks, 30 mg/kg): 13.96 g (2×) and 4.25 g and 5.37 g and 11.69 g and 2.8 g and 8.44 g and 7.94 g; Paw threshold ([1]; FIG. 26, compound 2 30 mg/kg p.o. QD on days 1-5 post-surgery, 3 wks, 30 mg/kg): 7.53 g and 6.64 g and 4.98 g and 2.2 g and 4.4 g and 2.38 g and 10.31 g and 15 g; Paw threshold ([1]; FIG. 26, compound 2 30 mg/kg p.o. QD on days 1-5 post-surgery, Pre-Sx, 30 mg/kg): 15 g (7×) and 11.69 g; Paw withdrawal threshold ([1]; compound 2 10 mg/kg p.o., 1 hr (D1), 10 mg/kg): 1.56 g and 4.98 g and 4.25 g (2×) and 15 g and 3.13 g and 2.81 g and 4.4 g; Paw withdrawal threshold ([1]; compound 2 10 mg/kg p.o., 1 hr (D2), 10 mg/kg): 1.31 g and 1.85 g (3×) and 2.38 g and 2.64 g and 1.65 g and 1.4 g; Paw withdrawal threshold ([1]; compound 2 10 mg/kg p.o., 1 hr (D3), 10 mg/kg): 0.44 g and 3.67 g and 1.85 g and 7.94 g and 3.33 g and 2 g and 2.81 g and 4.4 g; Paw withdrawal threshold ([1]; compound 2 10 mg/kg p.o., 3 hrs (D1), 10 mg/kg): 2 g and 7.94 g and 1.4 g and 15 g and 2.81 g and 2.64 g and 1.85 g and 3.57 g; Paw withdrawal threshold ([1]; compound 2 10 mg/kg p.o., 3 hrs (D2), 10 mg/kg): 0.4 g and 1.56 g (2×) and 11.69 g and 2.81 g and 2.37 g and 2 g and 3.71 g; Paw withdrawal threshold ([1]; compound 2 10 mg/kg p.o., 3 hrs (D3), 10 mg/kg): 0.99 g and 2.37 g and 1.56 g and 2.38 g and 2.81 g (2×) and 0.65 g and 3.33 g; Paw withdrawal threshold ([1]; compound 2 10 mg/kg p.o., Pre-Drug, 10 mg/kg): 2.2 g and 3.13 g (2×) and 4.25 g and 3.58 g and 3.73 g and 4.4 g and 2.64 g; Paw withdrawal threshold ([1]; compound 2 10 mg/kg p.o., Pre-Sx, 10 mg/kg): 11.69 g and 15 g (7×); Paw withdrawal threshold ([1]; compound 2 50 mg/kg p.o., 1 hr (D1), 50 mg/kg): 2.81 g (2×) and 6.64 g and 5.56 g (2×) and 3.67 g and 4.23 g and 4.98 g; Paw withdrawal threshold ([1]; compound 2 50 mg/kg p.o., 1 hr (D2), 50 mg/kg): 1.19 g and 2.81 g and 3.12 g and 7.94 g; Paw withdrawal threshold ([1]; compound 2 50 mg/kg p.o., 3 hrs (D1), 50 mg/kg): 1.18 g and 3.13 g (2×) and 3.33 g and 6.66 g (2×) and 6.64 g and 4.7 g; Paw withdrawal threshold ([1]; compound 2 50 mg/kg p.o., Pre-Drug, 50 mg/kg): 2.81 g (2×) and 3.33 g and 3.73 g and 2.2 g and 5.04 g and 4.25 g and 3.58 g; Paw withdrawal threshold ([1]; compound 2 50 mg/kg p.o., Pre-Sx): 15 g; development of SNL tactile allodynia, single administration ([1]; rat, 30 mg/kg p.o. immediately following surgery, assessed 1 and 2 weeks later, FIG. 25): a significant difference between treated animals and vehicle controls was not noted; development of SNL tactile allodynia, repeated administration ([1]; rat, 30 mg/kg p.o. once a day for 5 days starting on day of surgery, 1, 2 and 3 weeks post surgery, FIG. 26): significant reduction in tactile allodynia; reversal of SNL tactile allodynia, fasted animals, subsequent administrations ([1]; rat, 50 mg/kg p.o., 48 hrs later, FIG. 24): failed to produce a statistically significant effect; reversal of SNL tactile allodynia, non-fasted animals ([1]; rat, 10 and 50 mg/kg p.o., any time point after any of three administrations, FIG. 23): did not produce a statistically significant difference from vehicle treated animals; effect on capsaicin-mediated hyperalgesia [2]: inhibits capsaicin-mediated hyperalgesia; reversal of hyperalgesia following incisional surgery [3]: reverses hyperalgesia following incisional surgery; preservation of fentanyl analgesia, Hargreaves thermal hyperalgesia model [4]: dose-dependently preserves fentanyl analgesia; Latency to fall (ataxia (rotarod); compound 2 30 mg/kg p.o., Baseline, 30 mg/kg): 70 sec and 108.5 sec and 72 sec and 68 sec (2×) and 52 sec and 49 sec and 60.5 sec and 48.5 sec and 47.5 sec (2×) and 97 sec; Latency to fall (ataxia (rotarod); compound 2 30 mg/kg p.o., Post-Drug (1 hr), 30 mg/kg): 39 s and 99 s and 72 s and 94 s and 66 s and 81 s and 133 s and 120 s and 56 s and 115 s and 50 s and 70 s; Latency to fall (ataxia (rotarod); compound 2 100 mg/kg p.o., Baseline, 100 mg/kg): 43.5 s and 75.5 s and 55 s and 63 s and 60.5 s and 73.5 s and 73 s and 72 s and 54.5 s and 54 s and 46.5 s and 53 s; Latency to fall (ataxia (rotarod); compound 2 100 mg/kg p.o., Post-Drug (1 hr), 100 mg/kg): 86 sec and 64 sec and 45 sec (2×) and 111 sec and 91 sec and 221 sec and 72 sec (2×) and 66 sec and 20 sec and 199 sec; Latency to fall (ataxia (rotarod); compound 2 300 mg/kg p.o., Baseline, 300 mg/kg): 84 sec and 76.5 sec and 57 sec and 86.5 sec (2×) and 81.5 sec and 79 sec and 71.5 sec and 61 sec and 97.5 sec and 89 sec; Latency to fall (ataxia (rotarod); compound 2 300 mg/kg p.o., Post-Drug (1 hr), 300 mg/kg): 184 sec (2×) and 55 sec (2×) and 112 sec and 105 sec and 124 sec and 175 sec and 43 sec and 131 sec and 78 sec; latency to fall, accelerating rotarod (finding in words) (ataxia (rotarod); rat, 30, 100 and 300 mg/kg p.o., 1 hr post-dosing): did not significantly decrease latency to fall; also recorded: did not significantly reduce latency to fall; development of hyperalgesia following incisional surgery [5]: inhibits the development of hyperalgesia following incisional surgery
